target: BTK in mouse bone marrow (Mus musculus (Mouse), UniProt P35991); experiment: Mouse Bone Marrow Assay (MSD ELISA of BTK degradation in mouse bone marrow); format: in vivo; settings: female C57BL/6J mice, single dose of Dose A, bone marrow collected after 24 hours, % remaining BTK in vehicle versus treated samples
Procedure: Female C57BL/6J mice (Jackson Laboratories) were used for this study. Compounds or vehicle/control were prepped with EtOH; PEG-400; Phosal 53 MCT (10:30:60, v/v). Four mice were tested per compound or vehicle/control. On Day 1, mice were administered a single dose of Dose A. On Day 2 (after 24 hours), tissue (bone marrow) was collected from one hind leg per mouse.
An MSD (Meso Scale Discovery) ELISA (enzyme-linked immunosorbent assay) based assay was used to determine BTK degradation in mouse bone marrow. The following materials and equipment were used: 10% NP40 solution (nonionic polyoxyethylene surfactant, ThermoFisher, cat no. 28324); protease inhibitor mini tablet (Roche, cat no. 05 892 970 001); PhosphoSTOP™ tablet (Roche, cat no. 04 906 837 001); Pierce™ BCA Protein Assay Kit (Thermofisher, Cat No. 23225); Precellys® 2 mL lysing tube with 2.8 mm beads (VWR, cat no. 10032-756); Bertin Precellys® 24/Cryolys ® cooling system; 96-well MSD streptavidin pre-coated plates (MSD, cat no. L15SA-1); MSD Blocker A (MSD, cat no. R93BA-4); capture antibody, biotinylated BTK mAb (BD Biosciences, cat no. 624008; custom order); primary detection antibody, BTK RpAb (rabbit polyclonal antibody, CST, cat no. 8547S, D3H5 clone); secondary detection antibody, anti-Rabbit-Sulfo-Tag (MSD, cat no. R32AB-1); read Buffer, 4× (MSD, cat no. R92TC-1); recombinant BTK protein (Thermofisher, cat no. PR5442A); MSD Tris Wash Buffer (10×) (MSD, cat no. R61TX-1); PBS (phosphate-buffered saline); deionized water (diH2O); Lysis Buffer [0.2% NP40 in PBS+Protease Inhibitor tablet (1 tablet/10 mL)+PhosphoSTOP tablet (1 tablet/10 mL)]; 3% MSD Blocker A [MSD Blocker A+450 mL diH2O+50 mL]; and 10× MSD Tris Wash Buffer.
Lysis buffer [(PBS+0.2% NP40+PI (protease inhibitor)+PhosphoSTOP)]was prepared and put on ice until it was fully cold. Ice cold lysis buffer […] was added to each Precellys® tube containing beads and bone marrow sample. Sample tubes were transferred into Precellys® machine and homogenized using 5000 rpm -2×20 seconds. The sample lysates were centrifuged at 14,000 rpm for 20 minutes at 4° C. after homogenizing.
The protein concentration was determined using Pierce™ BCA Protein Assay Kit following manufacturer's recommended protocol. The protein normalized working solution was prepared, using 30 μg protein per sample lysate for assay.
A 300 ng/ml working stock solution of recombinant BTK protein in lysis buffer was prepared, and the sample was serially diluted at 3-fold dilution (10-point assay, highest concentration was 300 ng/mL and lowest concentration was 0.015 ng/mL)
MSD plate coating: Coating antibody (biotinylated-BTK mAb) stock solution was prepared at 1 μg/mL in PBS buffer. 50 μL/well capture antibody (Biotinylated BTK mAb) solution was added, and the plates were shaken gently at ambient temperature for two hours. The plates were washed 3 times with 1× MSD Tris Wash Buffer in a plate washer (300 μL/well), and the plates were blocked with 3% MSD Blocker A (150 μL/well). The plates were incubated for an additional 1-2 hours at ambient temperature with gentle shaking. The plates were washed 3 times with 1× MSD wash buffer using plate washer. Bone marrow lysates (30 μg) at a final volume of 50 μL/well were added into the plates. The serially diluted standard samples were added to the same plates at a final volume of 50 μL/well. The plates were incubated overnight at 4° C. with gentle shaking.
The plates were washed three times with 1× MSD wash buffer (prepared from 10× concentration buffer) using plate washer. Primary detection antibody at 50 μL/well was added (BTK RpAb; 1:1000 dilution in 1% MSD Blocker A). The plates were incubated for two hours at ambient temperature with gentle shaking. The plates were washed three times with 1× MSD wash buffer using plate washer. Anti-Rabbit-SULFO-TAG secondary antibodies (50 μl/well) were added, 1:500 diluted in 1% MSD Blocker A, and the plates were incubated for one to two hours at ambient temperature. […]

Chain of BTK in mouse bone marrow (P35991 whole entry): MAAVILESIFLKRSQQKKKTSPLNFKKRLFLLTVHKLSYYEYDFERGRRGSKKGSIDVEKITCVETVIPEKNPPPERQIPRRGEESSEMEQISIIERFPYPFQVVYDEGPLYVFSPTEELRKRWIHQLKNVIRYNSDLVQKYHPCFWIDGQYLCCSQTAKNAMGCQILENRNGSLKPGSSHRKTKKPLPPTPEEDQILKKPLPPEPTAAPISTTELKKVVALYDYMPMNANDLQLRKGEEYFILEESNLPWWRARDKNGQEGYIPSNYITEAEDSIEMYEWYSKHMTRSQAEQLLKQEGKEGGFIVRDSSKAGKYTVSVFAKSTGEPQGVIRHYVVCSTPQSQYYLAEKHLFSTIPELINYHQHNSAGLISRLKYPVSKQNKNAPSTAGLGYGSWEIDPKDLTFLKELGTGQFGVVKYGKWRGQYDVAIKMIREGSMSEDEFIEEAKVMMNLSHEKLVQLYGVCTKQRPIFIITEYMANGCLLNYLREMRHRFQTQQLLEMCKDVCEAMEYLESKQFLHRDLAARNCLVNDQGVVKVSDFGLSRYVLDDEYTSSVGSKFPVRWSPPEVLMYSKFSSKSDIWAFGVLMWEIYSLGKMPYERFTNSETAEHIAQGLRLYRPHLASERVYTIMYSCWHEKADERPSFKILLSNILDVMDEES

SMILES	Mouse Bone Marrow (%), % remaining BTK [%]
Cc1cc(-c2cc(Nc3ccc(N4CCN(CCc5ccc(N6CCC(=O)NC6=O)cc5)C[C@@H]4C)cn3)ncn2)ccc1[C@@H](C)NC(=O)c1nc(C(C)(C)C)no1 [Example 1, 3-tert-butyl-N-[(1R)-1-{4-[6-({5-[(2S)-4-{2-[4-(2,4-dioxo-1,3-diazinan-1-yl)phenyl]ethyl}-2-methylpiperazin-1-yl]pyridin-2-yl}amino)pyrimidin-4-yl]-2-methylphenyl}ethyl]-1,2,4-oxadiazole-5-carboxamide]	11
Cc1cc(-c2cc(Nc3ccc(N4CCN(CCc5ccc(N6CCC(=O)NC6=O)cc5)C[C@H]4C)cn3)ncn2)ccc1[C@@H](C)NC(=O)c1nc(C(C)(C)C)no1 [Example 2, 3-tert-butyl-N-[(1R)-1-{4-[6-({5-[(2R)-4-{2-[4-(2,4-dioxo-1,3-diazinan-1-yl)phenyl]ethyl}-2-methylpiperazin-1-yl]pyridin-2-yl}amino)pyrimidin-4-yl]-2-methylphenyl}ethyl]-1,2,4-oxadiazole-5-carboxamide]	12
Cc1cc(-c2cc(Nc3ccc(N4CCN(CCc5ccc(N6CCC(=O)NC6=O)cc5)CC4)cn3)ncn2)ccc1[C@@H](C)NC(=O)c1nc(C(C)(C)C)no1 [Example 3, 3-tert-butyl-N-{(1R)-1-[4-(6-{[5-(4-{2-[4-(2,4-dioxo-1,3-diazinan-1-yl)phenyl]ethyl}piperazin-1-yl)pyridin-2-yl]amino}pyrimidin-4-yl)-2-methylphenyl]ethyl}-1,2,4-oxadiazole-5-carboxamide]	22
Cc1cc(-c2cc(Nc3ccc(N4CCN(CCc5ccc(N6CCC(=O)NC6=O)c(F)c5)C[C@@H]4C)cn3)ncn2)ccc1[C@@H](C)NC(=O)c1nc(C(C)(C)C)no1 [Example 4, 3-tert-butyl-N-[(1R)-1-{4-[6-({5-[(2S)-4-{2-[4-(2,4-dioxo-1,3-diazinan-1-yl)-3-fluorophenyl]ethyl}-2-methylpiperazin-1-yl]pyridin-2-yl}amino)pyrimidin-4-yl]-2-methylphenyl}ethyl]-1,2,4-oxadiazole-5-carboxamide]	13
Cc1cc(-c2cc(Nc3ccc(N4CCN(CCc5ccc(N6CCC(=O)NC6=O)c(F)c5)C[C@H]4C)cn3)ncn2)ccc1[C@@H](C)NC(=O)c1nc(C(C)(C)C)no1 [Example 5, 3-tert-butyl-N-[(1R)-1-{4-[6-({5-[(2R)-4-{2-[4-(2,4-dioxo-1,3-diazinan-1-yl)-3-fluorophenyl]ethyl}-2-methylpiperazin-1-yl]pyridin-2-yl}amino)pyrimidin-4-yl]-2-methylphenyl}ethyl]-1,2,4-oxadiazole-5-carboxamide]	12
CC[C@H]1CN(CCc2ccc(N3CCC(=O)NC3=O)cc2)CCN1c1ccc(Nc2cc(-c3ccc([C@@H](C)NC(=O)c4nc(C(C)(C)C)no4)c(C)c3)ncn2)nc1 [Example 6, 3-tert-butyl-N-[(1R)-1-{4-[6-({5-[(2S)-4-{2-[4-(2,4-dioxo-1,3-diazinan-1-yl)phenyl]ethyl}-2-ethylpiperazin-1-yl]pyridin-2-yl}amino)pyrimidin-4-yl]-2-methylphenyl}ethyl]-1,2,4-oxadiazole-5-carboxamide]	19
CC[C@H]1CN(CCc2ccc(N3CCC(=O)NC3=O)c(F)c2)CCN1c1ccc(Nc2cc(-c3ccc([C@@H](C)NC(=O)c4nc(C(C)(C)C)no4)c(C)c3)ncn2)nc1 [Example 7, 3-tert-butyl-N-[(1R)-1-{4-[6-({5-[(2S)-4-{2-[4-(2,4-dioxo-1,3-diazinan-1-yl)-3-fluorophenyl]ethyl}-2-ethylpiperazin-1-yl]pyridin-2-yl}amino)pyrimidin-4-yl]-2-methylphenyl}ethyl]-1,2,4-oxadiazole-5-carboxamide]	22
CC[C@@H]1CN(CCc2ccc(N3CCC(=O)NC3=O)cc2)CCN1c1ccc(Nc2cc(-c3ccc([C@@H](C)NC(=O)c4nc(C(C)(C)C)no4)c(C)c3)ncn2)nc1 [Example 8, 3-tert-butyl-N-[(1R)-1-{4-[6-({5-[(2R)-4-{2-[4-(2,4-dioxo-1,3-diazinan-1-yl)phenyl]ethyl}-2-ethylpiperazin-1-yl]pyridin-2-yl}amino)pyrimidin-4-yl]-2-methylphenyl}ethyl]-1,2,4-oxadiazole-5-carboxamide]	30
Cc1cc(-c2cc(Nc3ccc(N4CCN(CCc5ccc(N6CCC(=O)NC6=O)cc5)CC4(C)C)cn3)ncn2)ccc1[C@@H](C)NC(=O)c1nc(C(C)(C)C)no1 [Example 9, 3-tert-butyl-N-{(1R)-1-[4-(6-{[5-(4-{2-[4-(2,4-dioxo-1,3-diazinan-1-yl)phenyl]ethyl}-2,2-dimethylpiperazin-1-yl)pyridin-2-yl]amino}pyrimidin-4-yl)-2-methylphenyl]ethyl}-1,2,4-oxadiazole-5-carboxamide]	31
Cc1cc(-c2cc(Nc3ccc(N4CCN(CCc5ccc(N6CCC(=O)NC6=O)cc5)CC4)cn3)ncn2)c(F)cc1[C@@H](C)NC(=O)c1nc(C(C)(C)C)no1 [Example 12, 3-tert-butyl-N-{(1R)-1-[4-(6-{[5-(4-{2-[4-(2,4-dioxo-1,3-diazinan-1-yl)phenyl]ethyl}piperazin-1-yl)pyridin-2-yl]amino}pyrimidin-4-yl)-5-fluoro-2-methylphenyl]ethyl}-1,2,4-oxadiazole-5-carboxamide]	17
Cc1cc(-c2cc(Nc3ccc(N4CCN(CCc5ccc(N6CCC(=O)NC6=O)cc5)C[C@@H]4C(C)C)cn3)ncn2)ccc1[C@@H](C)NC(=O)c1nc(C(C)(C)C)no1 [Example 13, 3-tert-butyl-N-[(1R)-1-{4-[6-({5-[(2S)-4-{2-[4-(2,4-dioxo-1,3-diazinan-1-yl)phenyl]ethyl}-2-(propan-2-yl)piperazin-1-yl]pyridin-2-yl}amino)pyrimidin-4-yl]-2-methylphenyl}ethyl]-1,2,4-oxadiazole-5-carboxamide]	26
C[C@@H](NC(=O)c1nc(C(C)(C)C)no1)c1ccc(-c2cc(Nc3ccc(N4CCN(CCc5ccc(N6CCC(=O)NC6=O)cc5)C[C@@H]4C)cn3)ncn2)cc1Cl [Example 14, 3-tert-butyl-N-[(1R)-1-{2-chloro-4-[6-({5-[(2S)-4-{2-[4-(2,4-dioxo-1,3-diazinan-1-yl)phenyl]ethyl}-2-methylpiperazin-1-yl]pyridin-2-yl}amino)pyrimidin-4-yl]phenyl}ethyl]-1,2,4-oxadiazole-5-carboxamide]	16
Cc1cc(-c2cc(Nc3ccc(N4CCN(CCc5ccc(N6CCC(=O)NC6=O)cc5)C[C@@H]4C)cc3)ncn2)ccc1[C@@H](C)NC(=O)c1nc(C(C)(C)C)no1 [Example 18]	25
Cc1cc(-c2cc(Nc3ccc(CCN4CCN(c5ccc(N6CCC(=O)NC6=O)cc5)CC4)cn3)ncn2)ccc1[C@@H](C)NC(=O)c1nc(C(C)(C)C)no1 [Example 19]	51
